Data from ChEMBL document CHEMBL1201862, “PubChem BioAssay data set” (2004).
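96-well plates; 48 h exposure; 5 concentrations. Endpoints by linear interpolation between flanking doses. Not reached: highest tested concentration assigned. Abbreviation: GI50, concentration required for 50% inhibition of growth.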 Active and inactive are the calls of the source. Cut-off read from the data, not from the text of the source: active = GI50 up to about 1.1 µM and inactive = higher.

Key:
Assay in all cases: NCI-60 cell line screen, 48 h
[1] = system: HCT-15
[2] = system: SNB-19
[3] = system: DLD-1
[4] = system: NCI-H460
[5] = system: M14
[6] = system: OVCAR-3
[7] = system: A549
[8] = system: SN12C
[9] = system: SNB-75
[10] = system: SK-MEL-28
[11] = system: UO-31
[12] = system: RXF 393
[13] = system: OVCAR-8
[14] = system: LOX IMVI
[15] = system: M19-MEL
[16] = system: KM-20L2
[17] = system: KM12
[18] = system: SF-268
[19] = system: HCC 2998
[20] = system: OVCAR-4
[21] = system: IGROV-1
[22] = system: DMS-273
[23] = system: COLO 205
[24] = system: SK-OV-3
[25] = system: MOLT-4
[26] = system: CAKI-1
[27] = system: SF-539
[28] = system: HT-29
[29] = system: OVCAR-5
[30] = system: SK-MEL-2
[31] = system: DMS-114
[32] = system: HOP-92
[33] = system: HOP-62
[34] = system: U-251
[35] = system: K562
[36] = system: UACC-62
[37] = system: UACC-257
[38] = system: NCI-H522
[39] = system: CCRF-CEM
[40] = system: SNB-78
[41] = system: SW-620
[42] = system: Malme-3M
[43] = system: RXF 631
[44] = system: RPMI-8226
[45] = system: ACHN
[46] = system: 786-0
[47] = system: SK-MEL-5
[48] = system: NCI-H23
[49] = system: EKVX
[50] = system: HOP-18
[51] = system: TK-10
[52] = system: A498
[53] = system: HL-60
[54] = system: SF-295
[55] = system: HCT-116
[56] = system: LXFL 529
[57] = system: NCI-H226
[58] = system: XF498
[59] = system: SR

Structure (SMILES): Cc1cc(C)nc(NS(=O)(=O)c2ccc(Nc3c4ccccc4nc4c(C(=O)Nc5ccc(S(=O)(=O)N=C(N)N)cc5)cccc34)cc2)n1
- GI50 [1]: > 100 µM
- GI50 [2]: 35.7 µM (inactive)
- GI50 [3]: > 100 µM (inactive)
- GI50 [4]: > 100 µM (inactive)
- GI50 [5]: 90.4 µM (inactive)
- GI50 [6]: > 100 µM (inactive)
- GI50 [7]: > 100 µM (inactive)
- GI50 [8]: > 100 µM (inactive)
- GI50 [9]: 27.2 µM (inactive)
- GI50 [10]: 67.3 µM (inactive)
- GI50 [11]: 85.3 µM (inactive)
- GI50 [12]: 24.4 µM (inactive)
- GI50 [13]: > 100 µM (inactive)
- GI50 [14]: > 100 µM (inactive)
- GI50 [15]: > 100 µM (inactive)
- GI50 [16]: > 100 µM (inactive)
- GI50 [17]: > 100 µM (inactive)
- GI50 [18]: > 100 µM (inactive)
- GI50 [19]: > 100 µM (inactive)
- GI50 [20]: > 100 µM (inactive)
- GI50 [21]: > 100 µM (inactive)
- GI50 [22]: > 100 µM (inactive)
- GI50 [23]: > 100 µM (inactive)
- GI50 [24]: > 100 µM (inactive)
- GI50 [25]: > 100 µM (inactive)
- GI50 [26]: > 100 µM (inactive)
- GI50 [27]: > 100 µM (inactive)
- GI50 [28]: > 100 µM (inactive)
- GI50 [29]: 51.8 µM (inactive)
- GI50 [30]: > 100 µM (inactive)
- GI50 [31]: > 100 µM (inactive)
- GI50 [32]: 37.5 µM (inactive)
- GI50 [33]: > 100 µM (inactive)
- GI50 [34]: 98.9 µM (inactive)
- GI50 [35]: > 100 µM (inactive)
- GI50 [36]: > 100 µM (inactive)
- GI50 [37]: > 100 µM (inactive)
- GI50 [38]: > 100 µM (inactive)
- GI50 [39]: > 100 µM (inactive)
- GI50 [40]: > 100 µM (inactive)
- GI50 [41]: > 100 µM (inactive)
- GI50 [42]: 78.7 µM (inactive)
- GI50 [43]: > 100 µM (inactive)
- GI50 [44]: > 100 µM (inactive)
- GI50 [45]: > 100 µM (inactive)
- GI50 [46]: > 100 µM (inactive)
- GI50 [47]: > 100 µM (inactive)
- GI50 [48]: > 100 µM (inactive)
- GI50 [49]: > 100 µM (inactive)
- GI50 [50]: > 100 µM (inactive)
- GI50 [51]: > 100 µM (inactive)
- GI50 [52]: > 100 µM (inactive)

Structure (SMILES): COc1ccc(NC(=O)C(=O)C(C(=O)c2ccccc2)C2OC(=O)c3ccccc32)c([N+](=O)[O-])c1 (stereo not drawn)
- GI50 [1]: > 100 µM
- GI50 [2]: > 100 µM (inactive)
- GI50 [3]: > 100 µM (inactive)
- GI50 [4]: > 100 µM (inactive)
- GI50 [53]: > 100 µM (inactive)
- GI50 [5]: > 100 µM (inactive)
- GI50 [54]: > 100 µM (inactive)
- GI50 [7]: > 100 µM (inactive)
- GI50 [8]: > 100 µM (inactive)
- GI50 [9]: > 100 µM (inactive)
- GI50 [10]: > 100 µM (inactive)
- GI50 [11]: > 100 µM (inactive)
- GI50 [12]: > 100 µM (inactive)
- GI50 [13]: > 100 µM (inactive)
- GI50 [14]: > 100 µM (inactive)
- GI50 [15]: > 100 µM (inactive)
- GI50 [55]: > 100 µM (inactive)
- GI50 [16]: > 100 µM (inactive)
- GI50 [56]: > 100 µM (inactive)
- GI50 [17]: > 100 µM (inactive)
- GI50 [18]: > 100 µM (inactive)
- GI50 [19]: > 100 µM (inactive)
- GI50 [57]: > 100 µM (inactive)
- GI50 [20]: > 100 µM (inactive)
- GI50 [21]: > 100 µM (inactive)
- GI50 [22]: > 100 µM (inactive)
- GI50 [23]: > 100 µM (inactive)
- GI50 [58]: > 100 µM (inactive)
- GI50 [24]: > 100 µM (inactive)
- GI50 [25]: > 100 µM (inactive)
- GI50 [26]: > 100 µM (inactive)
- GI50 [27]: > 100 µM (inactive)
- GI50 [28]: > 100 µM (inactive)
- GI50 [29]: > 100 µM (inactive)
- GI50 [30]: > 100 µM (inactive)
- GI50 [59]: > 100 µM (inactive)
- GI50 [31]: > 100 µM (inactive)
- GI50 [32]: > 100 µM (inactive)
- GI50 [33]: > 100 µM (inactive)
- GI50 [34]: > 100 µM (inactive)
- GI50 [35]: > 100 µM (inactive)
- GI50 [36]: > 100 µM (inactive)
- GI50 [37]: > 100 µM (inactive)
- GI50 [38]: > 100 µM (inactive)
- GI50 [39]: > 100 µM (inactive)
- GI50 [40]: > 100 µM (inactive)
- GI50 [41]: > 100 µM (inactive)
- GI50 [42]: > 100 µM (inactive)
- GI50 [44]: > 100 µM (inactive)
- GI50 [45]: > 100 µM (inactive)
- GI50 [46]: > 100 µM (inactive)
- GI50 [47]: > 100 µM (inactive)
- GI50 [48]: > 100 µM (inactive)
- GI50 [49]: > 100 µM (inactive)
- GI50 [50]: > 100 µM (inactive)
- GI50 [51]: > 100 µM (inactive)
- GI50 [52]: > 100 µM (inactive)

Structure (SMILES): COc1ccc2c3c([nH]c2c1[N+](=O)[O-])C(C)=NCC3
- GI50 [1]: > 100 µM
- GI50 [2]: > 100 µM (inactive)
- GI50 [3]: 99.1 µM (inactive)
- GI50 [4]: 34.9 µM (inactive)
- GI50 [53]: > 100 µM (inactive)
- GI50 [5]: > 100 µM (inactive)
- GI50 [6]: > 100 µM (inactive)
- GI50 [54]: 72.8 µM (inactive)
- GI50 [7]: 77.4 µM (inactive)
- GI50 [8]: 80.7 µM (inactive)
- GI50 [9]: > 100 µM (inactive)
- GI50 [10]: > 100 µM (inactive)
- GI50 [11]: 98.4 µM (inactive)
- GI50 [12]: > 100 µM (inactive)
- GI50 [13]: 62.7 µM (inactive)
- GI50 [14]: 50.9 µM (inactive)
- GI50 [55]: 30.2 µM (inactive)
- GI50 [16]: 69.3 µM (inactive)
- GI50 [56]: > 100 µM (inactive)
- GI50 [17]: 89.3 µM (inactive)
- GI50 [18]: 20 µM (inactive)
- GI50 [19]: > 100 µM (inactive)
- GI50 [57]: 51.8 µM (inactive)
- GI50 [20]: > 100 µM (inactive)
- GI50 [21]: 20.9 µM (inactive)
- GI50 [22]: 41.7 µM (inactive)
- GI50 [23]: 15.2 µM (inactive)
- GI50 [25]: 30.8 µM (inactive)
- GI50 [26]: 47.1 µM (inactive)
- GI50 [27]: 65.6 µM (inactive)
- GI50 [28]: 56.8 µM (inactive)
- GI50 [29]: 61 µM (inactive)
- GI50 [30]: > 100 µM (inactive)
- GI50 [59]: 40.4 µM (inactive)
- GI50 [31]: > 100 µM (inactive)
- GI50 [33]: > 100 µM (inactive)
- GI50 [34]: > 100 µM (inactive)
- GI50 [35]: 62.7 µM (inactive)
- GI50 [36]: 19.5 µM (inactive)
- GI50 [37]: > 100 µM (inactive)
- GI50 [38]: > 100 µM (inactive)
- GI50 [39]: 93.5 µM (inactive)
- GI50 [40]: > 100 µM (inactive)
- GI50 [41]: 53.1 µM (inactive)
- GI50 [43]: > 100 µM (inactive)
- GI50 [44]: 39.7 µM (inactive)
- GI50 [45]: 52.6 µM (inactive)
- GI50 [46]: > 100 µM (inactive)
- GI50 [48]: > 10 µM (inactive)
- GI50 [49]: > 100 µM (inactive)
- GI50 [51]: > 100 µM (inactive)
- GI50 [52]: 18.8 µM (inactive)

Structure (SMILES): CC1CC(c2ccc(Cl)cc2)=Nc2ccccc2S1 (stereo not drawn)
- GI50 [1]: > 100 µM
- GI50 [2]: > 100 µM (inactive)
- GI50 [3]: > 100 µM (inactive)
- GI50 [4]: > 100 µM (inactive)
- GI50 [53]: > 100 µM (inactive)
- GI50 [5]: > 100 µM (inactive)
- GI50 [6]: > 100 µM (inactive)
- GI50 [54]: > 100 µM (inactive)
- GI50 [7]: > 100 µM (inactive)
- GI50 [8]: > 100 µM (inactive)
- GI50 [9]: > 100 µM (inactive)
- GI50 [10]: > 100 µM (inactive)
- GI50 [11]: > 100 µM (inactive)
- GI50 [12]: > 100 µM (inactive)
- GI50 [13]: > 100 µM (inactive)
- GI50 [15]: > 100 µM (inactive)
- GI50 [55]: > 100 µM (inactive)
- GI50 [16]: > 100 µM (inactive)
- GI50 [56]: > 100 µM (inactive)
- GI50 [17]: > 100 µM (inactive)
- GI50 [18]: > 100 µM (inactive)
- GI50 [19]: > 100 µM (inactive)
- GI50 [57]: > 100 µM (inactive)
- GI50 [20]: > 100 µM (inactive)
- GI50 [21]: > 100 µM (inactive)
- GI50 [23]: > 100 µM (inactive)
- GI50 [24]: > 100 µM (inactive)
- GI50 [25]: > 100 µM (inactive)
- GI50 [27]: > 100 µM (inactive)
- GI50 [28]: > 100 µM (inactive)
- GI50 [29]: > 100 µM (inactive)
- GI50 [30]: > 100 µM (inactive)
- GI50 [59]: > 100 µM (inactive)
- GI50 [31]: > 100 µM (inactive)
- GI50 [33]: > 100 µM (inactive)
- GI50 [34]: > 100 µM (inactive)
- GI50 [35]: > 100 µM (inactive)
- GI50 [36]: > 100 µM (inactive)
- GI50 [37]: > 100 µM (inactive)
- GI50 [38]: > 100 µM (inactive)
- GI50 [39]: > 100 µM (inactive)
- GI50 [40]: > 100 µM (inactive)
- GI50 [41]: > 100 µM (inactive)
- GI50 [42]: > 100 µM (inactive)
- GI50 [43]: > 100 µM (inactive)
- GI50 [44]: > 100 µM (inactive)
- GI50 [45]: > 100 µM (inactive)
- GI50 [46]: > 100 µM (inactive)
- GI50 [48]: > 100 µM (inactive)
- GI50 [49]: > 100 µM (inactive)
- GI50 [51]: > 100 µM (inactive)
- GI50 [52]: > 100 µM (inactive)
